Experimental data reported in patent US12016831B2, “Polidocanol for use as immunomodulating agent” (priority 2018, dated 2024).
“Also recorded” adds a separate entry of the source.

What was measured:
Format in all cases: in vivo, human
[1] = tested on: healthy volunteer subjects; test: Serum immunoglobulin and light chain levels after treatment
Experimental: (§1) The recruited patients had already been subjected to one or more polidocanol treatments, but had undergone a wash-out period of at least 4 months.
Levels of IgM, IgG, IgA and of light chains kappa/lambda, kappa and lambda were also measured.
(§2) Determinations a)-d) were carried out with Multiple Immunomagnetic Assay (Bio-Plex, Bio-Rad). Ig determinations were carried out with commercially available kits.

[2] = tested on: patients suffering from venous insufficiency from minor to severe; test: QoL survey (CIVIQ-20) after 3 or 4 treatments with diluted polidocanol
Experimental: A commercially available polidocanol solution (Atossisclerol®) was diluted to 0.05% with a physiological saline solution. A 1.4% sodium bicarbonate solution was then added in order to obtain a final concentration of 0.06%. The patients, 80% of which were female between 18 and 82 years of age suffering from venous insufficiency from minor to severe, were subjected to treatment after obtaining their free and informed consent.
Before the treatment, about 100 patients were subjected to a survey in order to assess their quality of life and to evaluate possible variations of the phlogistic/inflammatory overall state, of the venous microcirculation and circulation functionality, and also, more in general, of the skin trophism.
The long term systemic effects were evaluated via a survey given to patients after 3 or 4 treatments with diluted polidocanol.
In particular, they were asked to fill out a survey (CIVIQ-20) according to the criteria defined in Launois R. et al “Construction and validation of a quality of life questionnaire in chronic lower limb venous insufficiency (CIVIQ), Qual. Life Res., 1996, 5(6):539-554.
The survey contained the questions summarized hereinbelow, with answers indexed with values from 0 to 4 (0 if the feeling of discomfort described by the question was not applicable and from 1 to 4 if it was applicable with increasing intensity). Hereinbelow are collected the activities which turned out to be improved after the treatment: • 1) During the last 4 weeks have you felt pain in the hips or legs and with what intensity? In 14% of cases a decrease in hip pain was observed after treatment with polidocanol according to the invention. • 2) During the last 4 weeks have you had troubles in the routine work activities, due to troubles with the lower limbs? In 75% cases the patients could note a better condition during routine work activity • 3) During the last 4 weeks have you had troubles sleeping due to troubles with your legs? With what frequency? 37% better sleeping conditions. No troubles. • 4) During the last 4 weeks have you had troubles in the following activities due to troubles with your legs? • a. Remaining standing for a long time. Improves in 87% • b. Climbing several flights of stairs. • c. Crouching kneeling down. Improves • d. Walking at a brisk pace. • e. Traveling by car, bus, plane. Improves in 85% • f. Performing housekeeping tasks (ironing, walking around in the kitchen, etc.). Improves in 85% • g. Going out at night. Improves in 85% • h. Playing sports • 5) Given that troubles with the legs can also affect moods, it was asked if during the last 4 weeks they had noticed troubles such as: • a. Nervousness • b. Quick fatigue • c. Feeling of oppression • d. Excessive caution • e. Embarrassment in showing off the legs. Improves in 90% • f. Irritability • g. Feeling of being handicapped • h. Morning fatigue. Improves in 95% • i. Not feeling like going out. Improves in 75%.

[3] = tested on: individuals over 70 years old with a peripheral venous insufficiency; test: Serum CRP levels in individuals over 70 years old with osteoarticular problems; details: for CRP level: T2 (8 days)
Experimental: CRP levels in serum samples of individuals over 70 years old, chronically affected by osteoarticular problems, with or without pain, was also measured. CRP levels were measured within a group of 30 people, with a peripheral venous insufficiency. The subjects (23 females, 7 males) underwent sclerotherapy according to the invention. Then, CRP levels were measured at time 0 (beginning of treatment) at T1 (24 hours after treatment) and at T2 (8 days after treatment).

[4] = tested on: healthy volunteer subjects; test: Serum measurement of cytokines, chemokines and growth factors (Bio-Plex) after treatment
Experimental: as §1
Blood was then drawn at about 30′-1 hour (T1h), 1 day (T1), 7 days (T7) and 30 days (T30) after treatment, measuring the following serum parameters: • a) “Pro-inflammatory” cytokines: IL-1β, IL-6, IL-7, IL-12 (p70), IL-17, IFN-γ, TNF-α; • b) “Anti-inflammatory” cytokines: IL-1ra, IL-4, IL-5, IL-9, IL-13; • c) Chemokines: IL-8/CXCL8, IP-10/CXCL10, MIP-1α/CCL3, MIP-1β, RANTES/CCL5, Eotaxin/CCL11; • d) Growth factors: b-FGF, PDGF-bb, VEGF, G-CSF.
In a limited number of patients measurements 30 minutes and 3 hours after the treatment were carried out in order to identify short-term responses and assess possible acute inflammation indicators.
as §2
The determinations carried out were statistically analysed with the Friedman test and Dunns Multiple Comparison test. The most significant results are depicted in FIG. 1.

[5] = 7 days post treatment (T7) vs basal

**Q.** Polidocanol [diluted polidocanol] was tested. Which IgA level ([1]; T30 with respect to T7 and T0) did it give?
**A.** decrease

**Q.** And the IgG level ([1]; T30 with respect to T7 and T0)?
**A.** decrease

**Q.** What about the IgM level ([1]; T30 with respect to T7 and T0) of the same substance?
**A.** decrease

**Q.** And the light chains levels ([1]; T30 with respect to T7 and T0)?
**A.** decrease

**Q.** What about the “immunogenic effect (IgM and IgG levels)” value ([1]; after 7 and 30 days, at the tested concentrations) of the same substance?
**A.** absence of an immunogenic effect

**Q.** And the “tested Ig levels” value ([1]; between T0 and T7)?
**A.** none of the tested Ig fluctuates

**Q.** And the “cases with decrease in hip pain” value ([2]; CIVIQ-20 question 1, after 3 or 4 treatments)?
**A.** 14%

**Q.** And the “cases with better condition during routine work activity” value ([2]; CIVIQ-20 question 2)?
**A.** 75%

**Q.** And the better sleeping conditions ([2]; CIVIQ-20 question 3)?
**A.** 37%

**Q.** What about the “Remaining standing for a long time, improves” value ([2]; CIVIQ-20 question 4a) of the same substance?
**A.** 87%

**Q.** And the Crouching kneeling down ([2]; CIVIQ-20 question 4c)?
**A.** Improves

**Q.** What about the “Traveling by car, bus, plane, improves” value ([2]; CIVIQ-20 question 4e) of the same substance?
**A.** 85%

**Q.** What about the “Performing housekeeping tasks, improves” value ([2]; CIVIQ-20 question 4f) of the same substance?
**A.** 85%

**Q.** What about the “Going out at night, improves” value ([2]; CIVIQ-20 question 4g) of the same substance?
**A.** 85%

**Q.** What about the “Embarrassment in showing off the legs, improves” value ([2]; CIVIQ-20 question 5e) of the same substance?
**A.** 90%

**Q.** What about the “Not feeling like going out, improves” value ([2]; CIVIQ-20 question 5i) of the same substance?
**A.** 75%

**Q.** And the “Morning fatigue, improves” value ([2]; CIVIQ-20 question 5h)?
**A.** 95%

**Q.** And the “cases with improved quality of life overall” value ([2]; answers after vs before treatment)?
**A.** 87%

**Q.** What about the “CRP levels vs time 0” value ([3]; T1 (24 hours after treatment), 30 people over 70) of the same substance?
**A.** did not show any variation

**Q.** And the “individuals showing a notable reduction of CRP levels” value ([3]; T2 (8 days after treatment), 27 out of 30)?
**A.** 90%

**Q.** What about the CRP level ([3]; case with starting CRP level 15 mg/l) of the same substance?
**A.** 10 mg/L

**Q.** And the CRP level ([3]; case with starting CRP level 18 mg/l)?
**A.** 9 mg/L

**Q.** What about the CRP level ([3]; case with starting CRP level 27 mg/l) of the same substance?
**A.** 16 mg/L

**Q.** What about the IL-8 level ([4]; 7-30 days) of the same substance?
**A.** increases

**Q.** What about the IL-1ra serum level [4, 5] of the same substance?
**A.** increase significantly; also recorded: significantly increased serum levels

**Q.** What about the IL-1β serum level [4, 5] of the same substance?
**A.** increase significantly; also recorded: significantly increased serum levels

**Q.** And the “IL-12 (p70) serum level” value [4, 5]?
**A.** increase significantly; also recorded: significantly increased serum levels

**Q.** And the MIP-1β/CCL4 serum level [4, 5]?
**A.** modest variation (increase); also recorded: significantly increased serum levels

**Q.** And the VEGF serum level [4, 5]?
**A.** Increase; also recorded: significantly increased serum levels

**Q.** What about the IL-7 serum level ([4]; 30 days (T30) vs T0, p<0.01) of the same substance?
**A.** decreases in a statistically significant way; also recorded: decreases significantly; also recorded: decrease

**Q.** And the IL-12 serum level ([4]; 30 days (T30) vs T0, p<0.05)?
**A.** increases significantly; also recorded: increase

**Q.** And the IL-1ra serum level ([4]; 30 days (T30), p<0.05)?
**A.** increase

**Q.** What about the IL-1β serum level ([4]; 30 days (T30), p<0.05) of the same substance?
**A.** increase

**Q.** And the VEGF serum level ([4]; 30 days (T30), p<0.05)?
**A.** higher levels; also recorded: increase

**Q.** What about the “serum parameters, not-treated (T0) vs 1 day after treatment (T1)” value ([4]; T1, acute inflammatory reaction) of the same substance?
**A.** None of the analysed parameters showed statistically significant differences

**Q.** And the PDGFbb level ([4]; after treatment)?
**A.** increasing

**Q.** And the b-FGF level ([4]; after treatment)?
**A.** increasing

**Q.** What about the “most of the serum parameters (except for IP-10/CXCL10) compared with T0” value ([4]; first hour after treatment (T30-45 min)) of the same substance?
**A.** increased

**Q.** And the “IL-2, IL-10, IL-15, GM-CSF and MCP-1/CCL2 serum levels” value ([4]; in vivo)?
**A.** below the detection limits

**Q.** What about the MIP-1α level ([4]; with respect to basal levels, within the 1st and 7th days) of the same substance?
**A.** modest variation (increase)
